# Results taken from PMC7287031 (Pharmacology Research & Perspectives, 2020).
# Legend:
# [1] = tested on: CYP enzymes that metabolise ribociclib in HLM (total metabolism; CYP-selective chemical inhibitors); test: Inhibition of [3H] ribociclib total metabolism in HLM by CYP- and FMO-selective inhibitors; format: in vitro ADME; conditions: both, human, human liver microsomes, pH 7.4, probe [3H] ribociclib
# [2] = Human ADME study: quantitative metabolite profiling in plasma; format: in vivo; set-up: AUC0-48h: concentration or dose not given beside the values
# Description: A plasma pool across the six healthy volunteers included in the study was prepared at the time points of 1 hour, 3 hours, 24 hours, and 48 hours post dose. For each time point, an equal volume of plasma was taken from each subject and combined. Plasma pool samples were processed by protein precipitation with acetonitrile. The protein pellet that resulted from precipitation with acetonitrile was washed further with additional aliquots of acetonitrile. All acetonitrile washes were combined and evaporated under nitrogen. For the 3‐ and 24‐hour plasma pools, the extraction procedure was slightly modified, including precipitation of the plasma proteins by addition of a 1:1 mixture of acetonitrile:methanol, followed by washing of the protein pellet with the same solvent mixture. All extracts were reconstituted with a solution of 15‐mM ammonium formate and acetonitrile (95:5 v/v). Extraction and reconstitution recoveries were measured in all four plasma samples in order to calculate and overall recovery. Quantitative metabolite profiling in plasma was accomplished using a Shimadzu Prominence high‐performance liquid chromatography (HPLC) system (Shimadzu, Columbia, MD, USA), coupled with fraction collection and analysis of total radioactivity in individual fractions using AMS (as described above). A second injection of each sample, conducted immediately after the first, was used to provide HPLC fractions for metabolite identification. The fractions identified as containing radioactivity from the AMS analysis were analyzed by HPLC coupled with high‐resolution mass spectrometry to identify the metabolites. The HPLC‐MS/MS methodology used is described below.
# [3] = Human ADME study: quantitative metabolite profiling in urine and feces; format: in vivo; conditions: for Excretion (% of dose), Total: urine plus feces, pooled excreta n=6
# Description: Average pools across the six subjects were also created by combining equal percentages (of total urine and feces excreted over the time interval) of the individual subject pools. Urine pools were analyzed directly for metabolite profiling (column recovery of a representative sample was measured), whereas feces pools were subjected to extraction. Specifically, to each aliquot of feces homogenate, two volumes of acetonitrile were added. After centrifugation, the pellet was washed further with an additional two volumes of acetonitrile. […] All washes were combined, evaporated under nitrogen, and reconstituted with a solution of 15‐mM ammonium formate (pH 3.5). This feces extract reconstitute was analyzed for metabolite profiling. Combined extraction and reconstitution (overall recovery) and column recovery were measured. […] The HPLC column used was a Phenomenex Kinetex, C18, 250 × 4.6 mm, equipped with a pre‐column of the same type (2.1 × 4.6 mm), which was placed in a column oven at 40°C. […] The HPLC gradient was as follows: initial conditions were 5% mobile phase B for 1 minute, then increased to 20% at 10 minutes post injection where it was held (isocratic) up to 20 minutes. […] The post column flow was directed to the fraction collector operated in a time‐slice mode and containing 96‐well Lumaplates (Perkin Elmer). The plates were dried at room temperature and the radioactivity was measured using a microplate scintillation counter model TopCount NXT (Perkin Elmer) instrument (up to 3 × 100‐minute counting time). […] Metabolites were identified during the same injections using data generated by the high‐resolution mass spectrometer. The molecular ions and key fragments of each drug‐related component were determined. Key fragments for each metabolite were derived from their product ion mass spectra and were used to determine the metabolite structures. Where possible, structural assignments were supported by exact mass measurement, comparison with synthetic standards and/or Hydrogen/Deuterium (H/D) exchange LC‐MS(/MS).
# [4] = Contribution of metabolites to total pharmacological activity in human; conditions: considering in vitro measurements and in vivo exposure
# [5] = substrate: CN(C)C(=O)c1cc2cnc(Nc3ccc(N4CCNCC4)cn3)nc2n1C1CCCC1; test: Enzyme kinetics with recombinant CYP1A2 and scaling to HLM; format: in vitro ADME, human; conditions: other: recombinant CYP1A2; 37.0 °C
# Description: (§1) In vitro incubations were carried out in 100‐mM potassium phosphate buffer (pH 7.4) and 5‐mM MgCl2 with a total volume of 200 µL. Substrate and either human liver microsomes (HLM, BD Biosciences, mixed gender pool of n = 50) or recombinant human enzymes (BD Biosciences) were added and pre‐incubated for 3 minutes at 37°C. The reaction was started by addition of a fresh solution of NADPH (1 mmol/L final concentration). The samples were incubated at 37°C with agitation of 500 rpm. For incubations with CYP2A6, CYP2C9, CYP2C18, and CYP4A11, the phosphate buffer was replaced by TRIS buffer (100 mmol/L, pH 7.4) and for flavin‐containing monooxygenases (FMOs), a glycine buffer (50 mM, pH 9.5) was used.
# (§2) The enzymatic reaction was stopped and the protein was precipitated by addition of an equal volume of methanol. After 30 min at −80°C, the samples were centrifuged at 30'000 x g for 15 min. The supernatant was withdrawn. Aliquots were analyzed by LSC and the supernatant was diluted with water to obtain a final solution containing less than 20% of the organic solvent. For samples of low substrate concentration, supernatants were evaporated to dryness under nitrogen, then re‐suspended in water containing less than 20% of methanol. Samples were analyzed by HPLC combined with radiodetection.
# (§3) The relative contribution of CYP enzymes to oxidative hepatic metabolism was determined using their Clint values multiplied by the unbound fraction in microsomes and their abundances in human liver microsomes. ^15 Among the hepatic P450 enzymes, CYP3A4 contributed predominantly (97%) to metabolism in human liver microsomes (Table 1) with negligible fraction metabolized by CYP1A2 (1.1%), CYP2J2 (0.8%), and CYP3A5 (1.2%).
# [6] = substrate: CN(C)C(=O)c1cc2cnc(Nc3ccc(N4CCNCC4)cn3)nc2n1C1CCCC1; test: Enzyme kinetics with recombinant CYP3A5 and scaling to HLM; format: in vitro ADME, human; conditions: other: recombinant CYP3A5; 37.0 °C
# Description: as §1, §2, §3
# [7] = human plasma pools n=6, from metabolite patterns
molecule,measurement,setting,value
CC(C)(O)c1ccccc1CC[C@@H](SCC1(CC(=O)O)CC1)c1cccc(/C=C/c2ccc3ccc(Cl)cc3n2)c1 [Montelukast],IC50,[1],> 2 µM
CN(CO)C(=O)c1cc2cnc(Nc3ccc(N4CCNCC4)cn3)nc2n1C1CCCC1 [M15],detection in plasma (AMS metabolite profiling),[2]; human plasma,not observed in plasma
same,"Excretion (% of dose), Urine","[3]; pooled excreta n=6, from metabolite patterns (radio profiling)",1.50 % of dose
same,"Excretion (% of dose), Total",[3],1.50 % of dose
CN(C)C(=O)c1cc2cnc(Nc3ccc(N4CCN(S(=O)(=O)O)CC4)cn3)nc2n1C1CCCC1 [M8 (CQM386)],AUC0-48h,[2]; [7],0.0142 µM·h
same,"AUC0-48h, % of total [14C]-AUC0-48",[2]; [7],0.0297%
same,Concentration in plasma pool,"[2]; human, 1 h post dose, pool n=6, from metabolite patterns",9.50 nM
same,"Excretion (% of dose), Total",[3],< 5.21 % of dose
CN(C)C(=O)c1cc2cnc(Nc3ccc(N4CCN(O)CC4)cn3)nc2n1C1CCCC1 [M13 (CCI284)],contribution to total pharmacological activity in human,[4],not to have a relevant contribution to total pharmacological activity
same,"AUC0-48h, % of total [14C]-AUC0-48",[2]; [7],9.39%
same,metabolite exposure as % of ribociclib exposure,"[2]; human plasma, AUC0-48",21.6%
CC[C@]1(C)C[C@@H](OC(=O)CSc2nnc(N)[nH]2)[C@]2(C)[C@H](C)CC[C@]3(CCC(=O)[C@H]32)[C@@H](C)[C@@H]1O [Azamulin],IC50,[1],1.05 µM
"CYP1A2 (Homo sapiens) (protein, purchased BD Biosciences) MALSQSVPFSATELLLASAIFCLVFWVLKGLRPRVPKGLKSPPEPWGWPLLGHVLTLGKNPHLALSRMSQRYGDVLQIRIGSTPVLVLSRLDTIRQALVRQGDDFKGRPDLYTSTLITDGQSLTFSTDSGPVWAARRRLAQNALNTFSIASDPASSSSCYLEEHVSKEAKALISRLQELMAGPGHFDPYNQVVVSVANVIGAMCFGQHFPESSDEMLSLVKNTHEFVETASSGNPLDFFPILRYLPNPALQRFKAFNQRFLWFLQKTVQEHYQDFDKNSVRDITGALFKHSKKGPRASGNLIPQEKIVNLVNDIFGAGFDTVTTAISWSLMYLVTKPEIQRKIQKELDTVIGRERRPRLSDRPQLPYLEAFILETFRHSSFLPFTIPHSTTRDTTLNGFYIPKKCCVFVNQWQVNHDPELWEDPSEFRPERFLTADGTAINKPLSEKMMLFGMGKRRCIGEVLAKWEIFLFLAILLQQLEFSVPPGVKVDLTPIYGLTMKHARCEHVQARLRFSIN",Km,[5],48 µM
same,kcat,[5],0.0185 s⁻¹
same,kcat/Km,[5],383 M⁻¹ s⁻¹
"CYP3A5 (Homo sapiens) (protein, purchased BD Biosciences) MDLIPNLAVETWLLLAVSLVLLYLYGTRTHGLFKRLGIPGPTPLPLLGNVLSYRQGLWKFDTECYKKYGKMWGTYEGQLPVLAITDPDVIRTVLVKECYSVFTNRRSLGPVGFMKSAISLAEDEEWKRIRSLLSPTFTSGKLKEMFPIIAQYGDVLVRNLRREAEKGKPVTLKDIFGAYSMDVITGTSFGVNIDSLNNPQDPFVESTKKFLKFGFLDPLFLSIILFPFLTPVFEALNVSLFPKDTINFLSKSVNRMKKSRLNDKQKHRLDFLQLMIDSQNSKETESHKALSDLELAAQSIIFIFAGYETTSSVLSFTLYELATHPDVQQKLQKEIDAVLPNKAPPTYDAVVQMEYLDMVVNETLRLFPVAIRLERTCKKDVEINGVFIPKGSMVVIPTYALHHDPKYWTEPEEFRPERFSKKKDSIDPYIYTPFGTGPRNCIGMRFALMNMKLALIRVLQNFSFKPCKETQIPLKLDTQGLLQPEKPIVLKVDSRDGTLSGE",Km,[6],23.9 µM
same,kcat,[6],0.0122 s⁻¹
same,kcat/Km,[6],517 M⁻¹ s⁻¹
